Where two headings read alike, the source gives them in different places.
Columns and labels:
WT c-MET [1] = biological target: T1, WT c-MET (Homo sapiens, UniProt P08581); assay type: binding; settings: Table 1; LLE = pKd – log D
Target sequence in this assay (P08581 25-1390): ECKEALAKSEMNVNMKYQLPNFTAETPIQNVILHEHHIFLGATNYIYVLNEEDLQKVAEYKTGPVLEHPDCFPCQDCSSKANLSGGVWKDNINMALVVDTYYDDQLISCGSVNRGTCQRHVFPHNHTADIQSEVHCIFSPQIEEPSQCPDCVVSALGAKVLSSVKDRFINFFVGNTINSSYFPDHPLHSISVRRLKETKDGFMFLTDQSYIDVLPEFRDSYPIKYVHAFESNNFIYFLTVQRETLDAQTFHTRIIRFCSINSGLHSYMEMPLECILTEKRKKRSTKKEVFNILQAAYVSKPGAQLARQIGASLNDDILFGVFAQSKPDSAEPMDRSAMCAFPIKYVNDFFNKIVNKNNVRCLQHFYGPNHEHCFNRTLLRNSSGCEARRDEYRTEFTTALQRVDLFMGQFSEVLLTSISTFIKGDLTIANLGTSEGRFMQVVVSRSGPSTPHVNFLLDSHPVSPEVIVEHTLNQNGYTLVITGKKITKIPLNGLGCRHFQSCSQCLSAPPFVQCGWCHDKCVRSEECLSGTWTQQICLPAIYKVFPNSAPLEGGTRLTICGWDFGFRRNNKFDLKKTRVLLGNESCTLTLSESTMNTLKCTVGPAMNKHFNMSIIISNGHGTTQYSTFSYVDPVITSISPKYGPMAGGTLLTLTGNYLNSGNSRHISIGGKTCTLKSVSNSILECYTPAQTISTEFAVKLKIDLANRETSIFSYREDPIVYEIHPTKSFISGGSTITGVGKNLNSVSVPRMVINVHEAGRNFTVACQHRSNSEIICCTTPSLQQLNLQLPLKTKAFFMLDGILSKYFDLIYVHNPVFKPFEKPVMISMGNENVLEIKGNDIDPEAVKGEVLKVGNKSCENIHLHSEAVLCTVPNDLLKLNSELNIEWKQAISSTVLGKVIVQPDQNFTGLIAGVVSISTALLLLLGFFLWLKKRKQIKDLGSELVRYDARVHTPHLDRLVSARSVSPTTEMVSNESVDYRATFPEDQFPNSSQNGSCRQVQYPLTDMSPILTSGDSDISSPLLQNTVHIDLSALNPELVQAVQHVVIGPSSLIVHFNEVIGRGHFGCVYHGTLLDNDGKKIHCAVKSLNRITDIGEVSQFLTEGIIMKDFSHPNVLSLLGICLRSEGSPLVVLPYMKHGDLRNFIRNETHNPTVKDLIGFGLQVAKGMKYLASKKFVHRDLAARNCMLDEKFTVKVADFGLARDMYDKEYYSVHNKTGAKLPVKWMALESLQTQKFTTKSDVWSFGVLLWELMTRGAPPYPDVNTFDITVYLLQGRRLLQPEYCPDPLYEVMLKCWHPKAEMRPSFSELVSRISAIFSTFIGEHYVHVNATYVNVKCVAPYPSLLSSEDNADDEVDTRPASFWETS

Rat hepatocytes = test: Rat hepatocyte Clint; settings: for RH: rat hepatocytes; for Hepatocytes Rat: Table 4
WT c-MET [2] = biological target: T1, WT c-MET; assay type: binding; settings: adenosine 500 μM, WT c-MET 7.4 μM, compound 100 μM
Target sequence in this assay (P08581 1038-1348): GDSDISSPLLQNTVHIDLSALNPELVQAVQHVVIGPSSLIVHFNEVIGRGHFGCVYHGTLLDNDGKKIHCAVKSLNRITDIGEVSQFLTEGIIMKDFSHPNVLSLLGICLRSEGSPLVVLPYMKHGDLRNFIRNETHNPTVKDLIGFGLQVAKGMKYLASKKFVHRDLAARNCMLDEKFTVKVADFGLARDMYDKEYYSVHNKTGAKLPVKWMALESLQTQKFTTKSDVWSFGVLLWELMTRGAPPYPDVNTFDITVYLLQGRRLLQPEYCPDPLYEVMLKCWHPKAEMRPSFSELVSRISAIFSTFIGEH

WT c-MET [3] = biological target: T1, WT c-MET; assay type: biochemical; settings: LLE = pIC50 – log D
Target sequence in this assay (P08581 25-1390): as the sequence (P08581 25-1390) above

[4] = Rat plasma pharmacokinetics; settings: male, Han Wistar, iv, 0.5 mg/kg
Human hepatocytes = test: Human hepatocyte Clint; settings: Table 4
[5] = Human liver microsome Clint
RON = settings: read-out: cell IC50 RON; cited from earlier work
c-MET = settings: read-out: cell IC50 c-MET; cited from earlier work
[6] = Table 3, human liver microsomes

Compound: CC(c1ccccc1)n1cc(-c2cc(F)cc(F)c2)c(=O)[nH]c1=O (centres unmarked) [Compound 2, 5-(3,5-Difluorophenyl)-1-(1-phenylethyl)pyrimidine-2,4(1H,3H)-dione]
- SPR assay LLE WT (WT c-MET [1]): 2.4
- RH (Rat hepatocytes; Table 1): 123 μL/min/10^6 cells
- competition with adenosine for binding to WT c-MET (WT c-MET [2]): clear competition

Compound: C[C@@H](c1ccccc1)n1cc(-c2cc(F)cc(F)c2)c(=O)[nH]c1=O [Compound 3, (S)-5-(3,5-Difluorophenyl)-1-(1-phenylethyl)pyrimidine-2,4(1H,3H)-dione]
- SPR assay LLE WT (WT c-MET [1]): 2.9
- RH (Rat hepatocytes; Table 1): 133 μL/min/10^6 cells

Compound: O=c1[nH]c(=O)n(Cc2ccccc2)cc1-c1cc(F)cc(F)c1 [Compound 4, 1-Benzyl-5-(3,5-difluorophenyl)pyrimidine-2,4(1H,3H)-dione]
- SPR assay LLE WT (WT c-MET [1]): <1.0/<1.0
- RH (Rat hepatocytes; Table 1): 76.7 μL/min/10^6 cells

Compound: CC(c1ccccc1Cl)n1cc(-c2cc(F)cc(F)c2)c(=O)[nH]c1=O (centres unmarked) [Compound 5, 1-(1-(2-Chlorophenyl)ethyl)-5-(3,5-difluorophenyl)pyrimidine-2,4(1H,3H)-dione]
- SPR assay LLE WT (WT c-MET [1]): 0.82
- RH (Rat hepatocytes; Table 1): 227 μL/min/10^6 cells

Compound: CC(c1cccc(Cl)c1)n1cc(-c2cc(F)cc(F)c2)c(=O)[nH]c1=O (centres unmarked) [Compound 7, 1-(1-(3-Chlorophenyl)ethyl)-5-(3,5-difluorophenyl)pyrimidine-2,4(1H,3H)-dione]
- SPR assay LLE WT (WT c-MET [1]): 2.2
- RH (Rat hepatocytes; Table 1): 177 μL/min/10^6 cells

Compound: CC(c1cccc(-c2cc[nH]n2)c1)n1cc(-c2cc(F)cc(F)c2)c(=O)[nH]c1=O (centres unmarked) [Compound 8, 1-(1-(3-(1H-Pyrazol-3-yl)phenyl)ethyl)-5-(3,5-difluorophenyl)pyrimidine-2,4(1H,3H)-dione]
- SPR assay LLE WT (WT c-MET [1]): 2.1
- RH (Rat hepatocytes; Table 1): 24.7 μL/min/10^6 cells

Compound: CC(c1cccc(-c2cn[nH]c2)c1)n1cc(-c2cc(F)cc(F)c2)c(=O)[nH]c1=O (centres unmarked) [Compound 9, 1-(1-(3-(1H-Pyrazol-4-yl)phenyl)ethyl)-5-(3,5-difluorophenyl)pyrimidine-2,4(1H,3H)-dione]
- SPR assay LLE WT (WT c-MET [1]): 2.7
- RH (Rat hepatocytes; Table 1): 22.3 μL/min/10^6 cells

Compound: CC(c1cccc(-c2c[nH]cn2)c1)n1cc(-c2cc(F)cc(F)c2)c(=O)[nH]c1=O (centres unmarked) [Compound 10, 1-(1-(3-(1H-Imidazol-5-yl)phenyl)ethyl)-5-(3,5-difluorophenyl)pyrimidine-2,4(1H,3H)-dione]
- SPR assay LLE WT (WT c-MET [1]): 3.1
- RH (Rat hepatocytes; Table 1): 6.03 μL/min/10^6 cells

Compound: CC(c1ccccc1)n1cc(-c2ccccc2)c(=O)[nH]c1=O (centres unmarked) [Compound 11, 5-Phenyl-1-(1-phenylethyl)pyrimidine-2,4(1H,3H)-dione]
- RH (Rat hepatocytes; Table 1): 185 μL/min/10^6 cells

Compound: CC(c1ccccc1)n1cc(-c2ccccn2)c(=O)[nH]c1=O (centres unmarked) [Compound 12, 1-(1-Phenylethyl)-5-(pyridin-2-yl)pyrimidine-2,4(1H,3H)-dione]
- SPR assay LLE WT (WT c-MET [1]): 3.2
- RH (Rat hepatocytes; Table 1): 300 μL/min/10^6 cells

Compound: CC(c1ccccc1)n1cc(-c2ncccn2)c(=O)[nH]c1=O (centres unmarked) [Compound 13, 1′-(1-Phenylethyl)-[2,5′-bipyrimidine]-2′,4′(1′H,3′H)-dione]
- RH (Rat hepatocytes; Table 1): 4.67 μL/min/10^6 cells

Compound: CC(c1ccccc1)n1cc(-c2ccc3[nH]ccc3c2)c(=O)[nH]c1=O (centres unmarked) [Compound 14, 5-(1H-Indol-5-yl)-1-(1-phenylethyl)pyrimidine-2,4(1H,3H)-dione]
- SPR assay LLE WT (WT c-MET [1]): 3.4/3.4
- RH (Rat hepatocytes; Table 1): 217 μL/min/10^6 cells

Compound: CC(c1ccccc1)n1cc(-c2cccc3cn[nH]c23)c(=O)[nH]c1=O (centres unmarked) [Compound 15, 5-(1H-Indazol-7-yl)-1-(1-phenylethyl)pyrimidine-2,4(1H,3H)-dione]
- ADP-Glo assay LLE WT (WT c-MET [3]; Table 2): 3.5
- SPR assay LLE WT (WT c-MET [1]): 4.2
- RH (Rat hepatocytes; Table 1): 46.1 μL/min/10^6 cells

Compound: CC(c1cccc(-c2c[nH]cn2)c1)n1cc(-c2cccc3cn[nH]c23)c(=O)[nH]c1=O (centres unmarked) [Compound 16, 1-(1-(3-(1H-Imidazol-5-yl)phenyl)ethyl)-5-(1H-indazol-7-yl)pyrimidine-2,4(1H,3H)-dione]
- SPR assay LLE WT (WT c-MET [1]): 4.1
- RH (Rat hepatocytes; Table 1): 5.84 μL/min/10^6 cells

Compound: CC(c1ccccc1)n1cc(-c2cccc3c(F)n[nH]c23)c(=O)[nH]c1=O (centres unmarked) [Compound 17, 5-(3-Fluoro-1H-indazol-7-yl)-1-(1-phenylethyl)pyrimidine-2,4(1H,3H)-dione]
- ADP-Glo assay LLE WT (WT c-MET [3]; Table 2): 3.1
- RH (Rat hepatocytes; Table 2): 49.4 μL/min/10^6 cells

Compound: Cc1n[nH]c2c(-c3cn(C(C)c4ccccc4)c(=O)[nH]c3=O)cccc12 (centres unmarked) [Compound 18, 5-(3-Methyl-1H-indazol-7-yl)-1-(1-phenylethyl)pyrimidine-2,4(1H,3H)-dione]
- ADP-Glo assay LLE WT (WT c-MET [3]; Table 2): 3.6
- RH (Rat hepatocytes; Table 2): 37.0 μL/min/10^6 cells

Compound: CC(c1ccccc1)n1cc(-c2cccc3c(C#N)n[nH]c23)c(=O)[nH]c1=O (centres unmarked) [Compound 19, 7-(2,4-Dioxo-1-(1-phenylethyl)-1,2,3,4-tetrahydropyrimidin-5-yl)-1H-indazole-3-carbonitrile]
- ADP-Glo assay LLE WT (WT c-MET [3]; Table 2): 3.4
- RH (Rat hepatocytes; Table 2): 41.4 μL/min/10^6 cells

Compound: CC(c1ccccc1)n1cc(-c2c(F)ccc3cn[nH]c23)c(=O)[nH]c1=O (centres unmarked) [Compound 20, 5-(6-Fluoro-1H-indazol-7-yl)-1-(1-phenylethyl)pyrimidine-2,4(1H,3H)-dione]
- ADP-Glo assay LLE WT (WT c-MET [3]; Table 2): 3.2
- RH (Rat hepatocytes; Table 2): 28.3 μL/min/10^6 cells

Compound: CC(c1ccccc1)n1cc(-c2cc(F)cc3cn[nH]c23)c(=O)[nH]c1=O (centres unmarked) [Compound 21, 5-(5-Fluoro-1H-indazol-7-yl)-1-(1-phenylethyl)pyrimidine-2,4(1H,3H)-dione]
- ADP-Glo assay LLE WT (WT c-MET [3]; Table 2): 3.9
- RH (Rat hepatocytes; Table 2): 14.0 μL/min/10^6 cells

Compound: CC(c1ccccc1)n1cc(-c2cc(F)cc3c(C#N)n[nH]c23)c(=O)[nH]c1=O (centres unmarked) [Compound 22, 7-(2,4-Dioxo-1-(1-phenylethyl)-1,2,3,4-tetrahydropyrimidin-5-yl)-5-fluoro-1H-indazole-3-carbonitrile]
- ADP-Glo assay LLE WT (WT c-MET [3]; Table 2): 3.8
- RH (Rat hepatocytes; Table 2): 51.4 μL/min/10^6 cells

Compound: CC(c1ccccn1)n1cc(-c2cc(F)cc3c(C#N)n[nH]c23)c(=O)[nH]c1=O (centres unmarked) [Compound 23, 7-(2,4-Dioxo-1-(1-(pyridin-2-yl)ethyl)-1,2,3,4-tetrahydropyrimidin-5-yl)-5-fluoro-1H-indazole-3-carbonitrile]
- ADP-Glo assay LLE WT (WT c-MET [3]; Table 3): 3.8
- RH (Rat hepatocytes; Table 3): 3.08 μL/min/10^6 cells

Compound: CC(c1ccc(F)cc1)n1cc(-c2cc(F)cc3c(C#N)n[nH]c23)c(=O)[nH]c1=O (centres unmarked) [Compound 24, 5-Fluoro-7-(1-(1-(4-fluorophenyl)ethyl)-2,4-dioxo-1,2,3,4-tetrahydropyrimidin-5-yl)-1H-indazole-3-carbonitrile]
- ADP-Glo assay LLE WT (WT c-MET [3]; Table 3): 3.4
- RH (Rat hepatocytes; Table 3): 4.40 μL/min/10^6 cells

Compound: C[C@@H](c1ccc(F)cc1)n1cc(-c2cc(F)cc3c(C#N)n[nH]c23)c(=O)[nH]c1=O [Compound 25, (S)-5-Fluoro-7-(1-(1-(4-fluorophenyl)ethyl)-2,4-dioxo-1,2,3,4-tetrahydropyrimidin-5-yl)-1H-indazole-3-carbonitrile]
- ADP-Glo assay LLE WT (WT c-MET [3]; Table 3): 3.8
- clearance [4]: 0.18 L/h/kg
- Hepatocytes Human (Human hepatocytes): 2.48 μL/min/10^6 cells
- RH (Rat hepatocytes; Table 3): 5.13 μL/min/10^6 cells
- Hepatocytes Rat (Rat hepatocytes): 5.13 μL/min/10^6 cells

Compound: CC(c1ccc(F)cc1)n1cc(-c2cc(F)cc3cn[nH]c23)c(=O)[nH]c1=O (centres unmarked) [Compound 26, 5-(5-Fluoro-1H-indazol-7-yl)-1-(1-(4-fluorophenyl)ethyl)pyrimidine-2,4(1H,3H)-dione]
- ADP-Glo assay LLE WT (WT c-MET [3]; Table 3): 3.5
- RH (Rat hepatocytes; Table 3): 11.9 μL/min/10^6 cells

Compound: C#Cc1n[nH]c2c(-c3cn(C(C)c4ccccc4)c(=O)[nH]c3=O)cccc12 (centres unmarked) [Compound 28, 5-(3-Ethynyl-1H-indazol-7-yl)-1-(1-phenylethyl)pyrimidine-2,4(1H,3H)-dione]
- ADP-Glo assay LLE WT (WT c-MET [3]; Table 3): 4.2
- RH (Rat hepatocytes; Table 3): 9.10 μL/min/10^6 cells

Compound: C#Cc1n[nH]c2c(-c3cn(C(C)c4ccccc4)c(=O)[nH]c3=O)cc(F)cc12 (centres unmarked) [Compound 29, 5-(3-Ethynyl-5-fluoro-1H-indazol-7-yl)-1-(1-phenylethyl)pyrimidine-2,4(1H,3H)-dione]
- HLM [5, 6]: 12.2 µL/min/mg
- HLM ([5]; Table 4): 12.2 µL/min/mg
- clearance [4]: 3.6 L/h/kg
- Hepatocytes Human (Human hepatocytes): 4.27 μL/min/10^6 cells
- RH (Rat hepatocytes; Table 3): 5.99 μL/min/10^6 cells
- Hepatocytes Rat (Rat hepatocytes): 5.99 μL/min/10^6 cells

Compound: C#Cc1n[nH]c2c(-c3cn([C@@H](C)c4ccccc4)c(=O)[nH]c3=O)cc(F)cc12 [Compound 30, (S)-5-(3-Ethynyl-5-fluoro-1H-indazol-7-yl)-1-(1-phenylethyl)pyrimidine-2,4(1H,3H)-dione]
- RH (Rat hepatocytes; Table 3): 15.0 μL/min/10^6 cells

Compound: C#Cc1n[nH]c2c(-c3cn(C(C)c4ccccn4)c(=O)[nH]c3=O)cc(F)cc12 (centres unmarked) [Compound 31, 5-(3-Ethynyl-5-fluoro-1H-indazol-7-yl)-1-(1-(pyridin-2-yl)ethyl)pyrimidine-2,4(1H,3H)-dione]
- ADP-Glo assay LLE WT (WT c-MET [3]; Table 3): 4.8
- HLM [5, 6]: <3.00 µL/min/mg
- HLM ([5]; Table 4): <3.00 µL/min/mg
- clearance [4]: 0.78 L/h/kg
- Hepatocytes Human (Human hepatocytes): 1.29 μL/min/10^6 cells
- RH (Rat hepatocytes; Table 3): 4.81 μL/min/10^6 cells
- Hepatocytes Rat (Rat hepatocytes): 4.81 μL/min/10^6 cells

Compound: C#Cc1n[nH]c2c(-c3cn([C@@H](C)c4ccccn4)c(=O)[nH]c3=O)cc(F)cc12 [Compound 32, (S)-5-(3-Ethynyl-5-fluoro-1H-indazol-7-yl)-1-(1-(pyridin-2-yl)ethyl)pyrimidine-2,4(1H,3H)-dione]
- ADP-Glo assay LLE WT (WT c-MET [3]; Table 3): 5.1
- RH (Rat hepatocytes; Table 3): 6.07 μL/min/10^6 cells
